# Results as given in PubChem BioAssay (NCI).
#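 Assay format: 96-well plates, 48-hour exposure. Abbreviation: GI50, concentration required for 50% inhibition of growth. TGI denotes the concentration required for complete inhibition of growth.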
# Assays:
# Assay in all cases: NCI tumour cell line growth inhibition, 48 h
# A498 renal = tested on: A498 renal
# M14 melanoma = tested on: M14 melanoma
# HOP-62 NSCLC = tested on: HOP-62 NSCLC
# UO-31 renal = tested on: UO-31 renal
# A549 NSCLC = tested on: A549 NSCLC
# OVCAR-3 ovarian = tested on: OVCAR-3 ovarian
# SF-539 CNS = tested on: SF-539 CNS
# K-562 leukemia = tested on: K-562 leukemia
# U251 CNS = tested on: U251 CNS
# MDA-MB-435 = tested on: MDA-MB-435
# MALME-3M melanoma = tested on: MALME-3M melanoma
# OVCAR-8 ovarian = tested on: OVCAR-8 ovarian
# HS 578T breast = tested on: HS 578T breast
# BT-549 breast = tested on: BT-549 breast
# NCI/ADR-RES ovarian = tested on: NCI/ADR-RES ovarian
# SF-268 CNS = tested on: SF-268 CNS
# MCF7 breast = tested on: MCF7 breast
# RPMI-8226 leukemia = tested on: RPMI-8226 leukemia
# TK-10 renal = tested on: TK-10 renal
# NCI-H23 lung = tested on: NCI-H23 lung
# OVCAR-5 ovarian = tested on: OVCAR-5 ovarian
# HT29 colon = tested on: HT29 colon
# NCI-H226 lung = tested on: NCI-H226 lung
# PC-3 prostate = tested on: PC-3 prostate
# HCT-15 colon = tested on: HCT-15 colon
# HCC-2998 colon = tested on: HCC-2998 colon
# RXF 393 renal = tested on: RXF 393 renal
# LOX IMVI melanoma = tested on: LOX IMVI melanoma
# SW-620 colon = tested on: SW-620 colon
# KM12 colon = tested on: KM12 colon
# SF-295 CNS = tested on: SF-295 CNS
# SNB-75 CNS = tested on: SNB-75 CNS
# HOP-92 NSCLC = tested on: HOP-92 NSCLC
# COLO 205 colon = tested on: COLO 205 colon
# SK-MEL-28 melanoma = tested on: SK-MEL-28 melanoma
# OVCAR-4 ovarian = tested on: OVCAR-4 ovarian
# NCI-H460 lung = tested on: NCI-H460 lung
# CAKI-1 renal = tested on: CAKI-1 renal
# SR leukemia = tested on: SR leukemia
# MDA-MB-231 breast = tested on: MDA-MB-231 breast
# UACC-62 melanoma = tested on: UACC-62 melanoma
# 786-0 renal = tested on: 786-0 renal
# SNB-19 CNS = tested on: SNB-19 CNS
# UACC-257 melanoma = tested on: UACC-257 melanoma
# HL-60(TB) leukemia = tested on: HL-60(TB) leukemia
# SK-MEL-5 melanoma = tested on: SK-MEL-5 melanoma
# ACHN renal = tested on: ACHN renal
# DU-145 prostate = tested on: DU-145 prostate
# SN12C renal = tested on: SN12C renal
# T-47D breast = tested on: T-47D breast
# CCRF-CEM leukemia = tested on: CCRF-CEM leukemia
# NCI-H522 lung = tested on: NCI-H522 lung
# EKVX NSCLC = tested on: EKVX NSCLC
# SK-MEL-2 melanoma = tested on: SK-MEL-2 melanoma
# MOLT-4 leukemia = tested on: MOLT-4 leukemia
# SK-OV-3 ovarian = tested on: SK-OV-3 ovarian
# IGROV1 ovarian = tested on: IGROV1 ovarian
# HCT-116 colon = tested on: HCT-116 colon
smiles,measurement,setting,value
CCO/C=N/C1=C(C#N)C(c2ccc(OC)cc2)c2sc3c(CC)cccc3c2O1 (stereo unspecified),GI50,A498 renal,472 nM
same,TGI,A498 renal,7.6 µM
same,GI50,M14 melanoma,1500 nM
same,TGI,M14 melanoma,11.8 µM
same,GI50,HOP-62 NSCLC,5.63 µM
same,TGI,HOP-62 NSCLC,22.4 µM
same,GI50,UO-31 renal,3.29 µM
same,TGI,UO-31 renal,16.1 µM
same,GI50,A549 NSCLC,2590 nM
same,TGI,A549 NSCLC,34.1 µM
same,GI50,OVCAR-3 ovarian,3.59 µM
same,TGI,OVCAR-3 ovarian,18.1 µM
same,GI50,SF-539 CNS,1750 nM
same,TGI,SF-539 CNS,4.5 µM
same,GI50,K-562 leukemia,678 nM
same,TGI,K-562 leukemia,30.8 µM
same,GI50,U251 CNS,3.77 µM
same,TGI,U251 CNS,16.3 µM
same,GI50,MDA-MB-435,373 nM
same,TGI,MDA-MB-435,1510 nM
same,GI50,MALME-3M melanoma,10.9 µM
same,TGI,MALME-3M melanoma,25 µM
same,GI50,OVCAR-8 ovarian,3.24 µM
same,TGI,OVCAR-8 ovarian,18 µM
same,GI50,HS 578T breast,2300 nM
same,TGI,HS 578T breast,9.55 µM
same,GI50,BT-549 breast,4.56 µM
same,TGI,BT-549 breast,19.4 µM
same,GI50,NCI/ADR-RES ovarian,566 nM
same,TGI,NCI/ADR-RES ovarian,13.9 µM
same,GI50,SF-268 CNS,7.49 µM
same,TGI,SF-268 CNS,29.2 µM
same,GI50,MCF7 breast,1250 nM
same,TGI,MCF7 breast,13 µM
same,GI50,RPMI-8226 leukemia,2740 nM
same,TGI,RPMI-8226 leukemia,11.8 µM
same,GI50,TK-10 renal,9.77 µM
same,TGI,TK-10 renal,24.2 µM
same,GI50,NCI-H23 lung,3.09 µM
same,TGI,NCI-H23 lung,16.4 µM
same,GI50,OVCAR-5 ovarian,5.19 µM
same,TGI,OVCAR-5 ovarian,18.4 µM
same,GI50,HT29 colon,3.22 µM
same,TGI,HT29 colon,11.6 µM
same,GI50,NCI-H226 lung,6.65 µM
same,TGI,NCI-H226 lung,25.4 µM
same,GI50,PC-3 prostate,1500 nM
same,TGI,PC-3 prostate,12.6 µM
same,GI50,HCT-15 colon,920 nM
same,TGI,HCT-15 colon,10.4 µM
same,GI50,HCC-2998 colon,2010 nM
same,TGI,HCC-2998 colon,5.98 µM
same,GI50,RXF 393 renal,1720 nM
same,TGI,RXF 393 renal,4.83 µM
same,GI50,LOX IMVI melanoma,2310 nM
same,TGI,LOX IMVI melanoma,14.5 µM
same,GI50,SW-620 colon,1450 nM
same,TGI,SW-620 colon,16.4 µM
same,GI50,KM12 colon,2630 nM
same,TGI,KM12 colon,21.7 µM
same,GI50,SF-295 CNS,475 nM
same,TGI,SF-295 CNS,1960 nM
same,GI50,SNB-75 CNS,366 nM
same,TGI,SNB-75 CNS,4.02 µM
same,GI50,HOP-92 NSCLC,1670 nM
same,TGI,HOP-92 NSCLC,16.7 µM
same,GI50,COLO 205 colon,3.52 µM
same,TGI,COLO 205 colon,12.9 µM
same,GI50,SK-MEL-28 melanoma,7.74 µM
same,TGI,SK-MEL-28 melanoma,25 µM
same,GI50,OVCAR-4 ovarian,4.26 µM
same,TGI,OVCAR-4 ovarian,16.3 µM
same,GI50,NCI-H460 lung,3.46 µM
same,TGI,NCI-H460 lung,12.8 µM
same,GI50,CAKI-1 renal,1900 nM
same,TGI,CAKI-1 renal,19.3 µM
same,GI50,SR leukemia,821 nM
same,TGI,SR leukemia,25 µM
same,GI50,MDA-MB-231 breast,4.05 µM
same,TGI,MDA-MB-231 breast,24.1 µM
same,GI50,UACC-62 melanoma,1040 nM
same,TGI,UACC-62 melanoma,18.4 µM
same,GI50,786-0 renal,3.06 µM
same,TGI,786-0 renal,17.5 µM
same,GI50,SNB-19 CNS,3.35 µM
same,TGI,SNB-19 CNS,15.5 µM
same,GI50,UACC-257 melanoma,13.1 µM
same,TGI,UACC-257 melanoma,38.2 µM
same,GI50,HL-60(TB) leukemia,1920 nM
same,TGI,HL-60(TB) leukemia,14.5 µM
same,GI50,SK-MEL-5 melanoma,4.86 µM
same,TGI,SK-MEL-5 melanoma,17 µM
same,GI50,ACHN renal,3.36 µM
same,TGI,ACHN renal,17.2 µM
same,GI50,DU-145 prostate,3.55 µM
same,TGI,DU-145 prostate,14.9 µM
same,GI50,SN12C renal,3.73 µM
same,TGI,SN12C renal,18.1 µM
same,GI50,T-47D breast,3.13 µM
same,TGI,T-47D breast,15.8 µM
same,GI50,CCRF-CEM leukemia,1230 nM
same,TGI,CCRF-CEM leukemia,20.8 µM
same,GI50,NCI-H522 lung,1180 nM
same,TGI,NCI-H522 lung,6.01 µM
same,GI50,EKVX NSCLC,3.47 µM
same,TGI,EKVX NSCLC,17.3 µM
same,GI50,SK-MEL-2 melanoma,5.76 µM
same,TGI,SK-MEL-2 melanoma,22.7 µM
same,GI50,MOLT-4 leukemia,3.28 µM
same,TGI,MOLT-4 leukemia,26.2 µM
same,GI50,SK-OV-3 ovarian,5.3 µM
same,TGI,SK-OV-3 ovarian,20.9 µM
same,GI50,IGROV1 ovarian,1530 nM
same,TGI,IGROV1 ovarian,17.5 µM
same,GI50,HCT-116 colon,1030 nM
same,TGI,HCT-116 colon,11.7 µM
